Results reported in patent EP1184374A1, “Carboxamide derivatives of pyrrolidine, piperidine and hexahydroazepine for the treatment of thrombosis disorders” (ORTHO PHARMACEUTICAL CORPORATION, priority 1996, dated 1997).
pIC50: −log10 of the molar value. Values joined by “and” are separate entries in the source; they are usually repeats but may differ in a detail not shown here. Equal entries are not always repeated.

Columns and labels:
[1] = system: thrombus formation; assay: Canine arteriovenous shunt model of thrombosis; type: in vivo
Description: For instance, compound 16 inhibits thrombus formation at 10, 30, and 100 µg/kg/min cumulative doses by iv infusion (75%, 37%, 12% of thrombus weight vs. vehicle control, respectively). Compound 18 inhibits thrombus formation at 3, 10, and 30 µg/kg/min cumulative doses by iv infusion (82%, 41%, 12% of thrombus weight vs. vehicle control, respectively).

[2] = system: gel-filtered platelets; assay: In vitro inhibition of thrombin-induced gel-filtered platelet aggregation; type: cell-based; details: Homo sapiens; for inhibition at 50 µM: read-out: Platelet Aggregation % Inh. (50µM)
Description: IN VITRO INHIBITION OF THROMBIN-INDUCED GEL-FILTERED PLATELET AGGREGATION ASSAY.
The percentage of platelet aggregation is calculated as an increase in light transmission of compound-treated platelet concentrate vs. control-treated platelet concentrate. Human blood is obtained from drug free, normal donors into tubes containing 0.13M sodium citrate. Platelet rich plasma (PRP) is collected by centrifugation of whole blood at 200 x g for 10 min at 25°C. The PRP (5 mL) is gel filtered through Sepharose 2B (bed volume 50 mL), and the platelet count is adjusted to 2x10^7 platelets per sample. The following constituents are added to a siliconized cuvette: concentrated platelet filtrate and Tyrode's buffer (0.14M NaCl, 0.0027MKCl, 0.012M NaHCO3, 0.76 mM Na2HPO4, 0.0055M glucose, 2 mg/mL BSA and 5.0mM HEPES @ pH 7.4) in an amount equal to 350 µl, 50 µl of 20 mM calcium and 50 µl of the test compound. Aggregation is monitored in a BIODATA aggregometer for the 3 min following the addition of agonist (thrombin 50 µl of 1 unit/mL).

[3] = target: GPIIb/IIIa (Homo sapiens, UniProt P05106+P08514); assay: In vitro solid phase purified glycoprotein IIb/IIIa binding assay (biotinylated fibrinogen binding); details: for inhibition at 50 µM: read-out: Fibrinogen Binding % Inh. (50 µM)
GPIIb/IIIa, sequence (P08514 32-887 limits assumed): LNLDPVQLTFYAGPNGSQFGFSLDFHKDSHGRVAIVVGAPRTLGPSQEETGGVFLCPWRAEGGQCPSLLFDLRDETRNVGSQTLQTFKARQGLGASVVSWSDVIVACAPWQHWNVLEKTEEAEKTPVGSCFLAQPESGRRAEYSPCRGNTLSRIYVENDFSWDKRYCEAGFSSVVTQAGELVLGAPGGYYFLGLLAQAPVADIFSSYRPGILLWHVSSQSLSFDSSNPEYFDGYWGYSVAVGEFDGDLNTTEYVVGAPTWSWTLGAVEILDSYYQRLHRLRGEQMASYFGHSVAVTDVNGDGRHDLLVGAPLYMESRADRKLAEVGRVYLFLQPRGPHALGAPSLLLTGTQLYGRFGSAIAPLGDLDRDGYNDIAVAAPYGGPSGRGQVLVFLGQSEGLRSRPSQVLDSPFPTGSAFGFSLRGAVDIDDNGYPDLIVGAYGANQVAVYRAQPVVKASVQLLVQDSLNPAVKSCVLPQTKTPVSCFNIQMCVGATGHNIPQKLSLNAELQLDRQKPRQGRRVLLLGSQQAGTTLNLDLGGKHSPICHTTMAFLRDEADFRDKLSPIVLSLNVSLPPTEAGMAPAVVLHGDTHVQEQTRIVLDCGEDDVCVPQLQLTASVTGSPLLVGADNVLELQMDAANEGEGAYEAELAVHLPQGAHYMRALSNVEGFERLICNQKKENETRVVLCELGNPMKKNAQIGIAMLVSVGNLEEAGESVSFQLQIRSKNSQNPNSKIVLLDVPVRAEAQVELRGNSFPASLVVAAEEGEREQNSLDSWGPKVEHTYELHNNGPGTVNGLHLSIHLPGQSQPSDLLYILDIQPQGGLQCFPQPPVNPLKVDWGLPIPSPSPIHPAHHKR
GPIIb/IIIa, sequence (P08514 891-1039 partner limits assumed): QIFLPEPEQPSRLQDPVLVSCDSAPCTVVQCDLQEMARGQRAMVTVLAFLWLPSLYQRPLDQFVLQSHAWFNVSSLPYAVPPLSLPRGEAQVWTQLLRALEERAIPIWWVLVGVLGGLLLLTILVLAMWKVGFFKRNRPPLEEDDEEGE
GPIIb/IIIa, sequence (P05106 27-788): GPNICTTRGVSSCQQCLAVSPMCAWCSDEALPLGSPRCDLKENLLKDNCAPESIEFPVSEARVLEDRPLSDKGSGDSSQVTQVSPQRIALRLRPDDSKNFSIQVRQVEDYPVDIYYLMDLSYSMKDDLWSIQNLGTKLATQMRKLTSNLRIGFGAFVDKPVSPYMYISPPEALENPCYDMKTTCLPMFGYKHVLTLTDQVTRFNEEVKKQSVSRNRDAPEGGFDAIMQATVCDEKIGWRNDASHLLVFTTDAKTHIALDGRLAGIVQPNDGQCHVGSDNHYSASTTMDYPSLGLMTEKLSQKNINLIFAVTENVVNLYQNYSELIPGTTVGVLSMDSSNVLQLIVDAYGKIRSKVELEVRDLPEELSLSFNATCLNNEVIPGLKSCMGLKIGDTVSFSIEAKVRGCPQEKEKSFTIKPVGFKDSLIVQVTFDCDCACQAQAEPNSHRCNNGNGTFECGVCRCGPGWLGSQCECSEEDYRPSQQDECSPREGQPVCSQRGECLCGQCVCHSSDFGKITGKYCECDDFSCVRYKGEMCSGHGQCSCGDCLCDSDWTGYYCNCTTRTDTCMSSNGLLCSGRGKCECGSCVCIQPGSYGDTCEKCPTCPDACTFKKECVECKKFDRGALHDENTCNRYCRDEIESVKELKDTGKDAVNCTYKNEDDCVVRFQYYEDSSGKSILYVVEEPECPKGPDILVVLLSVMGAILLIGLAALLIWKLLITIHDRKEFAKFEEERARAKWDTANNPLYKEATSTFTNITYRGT
Description: IN VITRO SOLID PHASE PURIFIED GLYCOPROTEIN IIB/IIIA BINDING ASSAY.
The plate is covered and incubated overnight at 4°C. The GPIIb/IIa solution is discarded and 150 µl of 5% BSA is added and incubated at RT for 1-3 h. The plate is washed extensively with modified Tyrodes buffer. Biotinylated fibrinogen (25 µl/well) at 2 x final concentration is added to the wells that contain the test compounds (25 µl/well). The plate is covered and incubated at RT for 2-4 h. Twenty minutes prior to incubation completion, one drop of Reagent A (Vecta Stain ABC Horse Radish Peroxidase kit, Vector Laboratories, Inc.) and one drop Reagent B are added with mixing to 5 mL modified Tyrodes buffer mix and let stand. The ligand solution is discarded and the plate washed (5 x 200 µl/well) with modified Tyrodes buffer. Vecta Stain HRP-Biotin-Avidin reagent (50 µl/well, as prepared above) is added and incubated at RT for 15 min. The Vecta Stain solution is discarded and the wells washed (5 x 200 µl/well) with modified Tyrodes buffer. Developing buffer (10 mL of 50 mM citrate/phosphate buffer @ pH 5.3, 6 mg o-phenylenediamine, 6 µl 30% H2O2; 50 µl/well) is added and incubated at RT for 3-5 min, and then 2N H2SO4 (50 µl/well) is added. The absorbance is read at 490 nm.

[4] = system: collagen- or ADP-induced ex vivo platelet aggregation; assay: Ex vivo dog study (platelet aggregation, hemodynamics, bleeding time, coagulation, cell counts); type: in vivo, dogs
Description: Adult mongrel dogs (8-13 kg) were anesthetized with sodium pentobarbital (35 mg/kg, i.v.) and artificially respired. Arterial blood pressure and heart rate were measured using a Millar catheter-tip pressure transducer inserted in a femoral artery. Another Millar transducer was placed in the left ventricle (LV) via a carotid artery to measure LV end diastolic pressure and indices of myocardial contractility. A lead II electrocardiogram was recorded from limb electrodes. Catheters were placed in a femoral artery and vein to sample blood and infuse drugs, respectively. Responses were continuously monitored using a Modular Instruments data aquisition system.
Arterial blood samples (5-9 ml) were withdrawn into tubes containing 3.8% sodium citrate to prepare platelet rich plasma (PRP) and to determine effects on coagulation parameters: prothrombin time (PT) and activated partial thromboplastin time (APTT). Separate blood samples (1.5 ml) were withdrawn in EDTA to determine hematocrit and cell counts (platelets, RBC's and white cells). Template bleeding times were obtained from the buccal surface using a symplate incision devise and Whatman filter paper.
Aggregation of PRP was performed using a BioData aggregometer. Aggregation of whole blood used a Chronolog impedance aggregometer. PT and APTT were determined on either a BioData or ACL 3000+ coagulation analyser. Cells were counted with a Sysmex K-1000.
Compounds were solubilized in a small volume of dimethylformamide (DMF) and diluted with saline to a final concentration of 10% DMF. Compounds were administered by the intravenous route with a Harvard infusion pump. Doses was administered over a 15 min interval at a constant rate of 0.33 ml/min. Data were obtained after each dose and in 30 min intervals following the end of drug administration. Oral doses were administered as aqueous solutions via syringe.

[5] = system: platelet aggregation; details: L. Alig, J. Med. Chem. 1992, 35, 4393; read-out: IC50 against in vitro thrombin-induced platelet aggregation; cited from earlier work
[6] = 10 µg/kg/min cumulative dose by iv infusion
[7] = 30 µg/kg/min cumulative dose by iv infusion

| Compound | pIC50 [2] | inhibition at 50 µM [3] [%] | inhibition at 50 µM [2] [%] | Duration of >50% inhibition of collagen-induced ex vivo platelet aggregation ([4]; intravenous dosing 0.3 mpk) [min] | Duration of >50% inhibition of collagen-induced ex vivo platelet aggregation ([4]; oral dosing 3 mpk) [min] | further results |
| --- | --- | --- | --- | --- | --- | --- |
| O=C(O)C[C@H](NC(=O)[C@@H]1CCCN(C(=O)CCC2CCNCC2)C1)c1cccnc1 [Compound 21, N-3-(4-Piperidinepropionyl)-R-(-)-nipecotyl-[(S)-3-amino-3-(3-pyridyl)] propionic acid] | 7.22 | 100 | 100 | – | – | Duration of >50% inhibition of collagen- or ADP-induced ex vivo platelet aggregation ([4]; intravenous dosing 0.3 mpk): 150 min; Duration of >50% inhibition of collagen- or ADP-induced ex vivo platelet aggregation ([4]; oral dosing 1 mpk): 180 min |
| COc1cccc(NC(=O)N[C@@H](CNC(=O)[C@@H]2CCCN(C(=O)CCC3CCNCC3)C2)C(=O)O)c1 [Compound 22, N-3-(4-Piperidinepropionyl)-R-(-)nipecotyl-[(S)-2-(3-methoxyanilino)carbonylamino-3-amino]propionic acid] | 7.34 | 100 | 94 | 180 | 60 | – |
| O=C(O)C[C@H](NC(=O)[C@@H]1CCCN(C(=O)N2CCC(C3CCNCC3)CC2)C1)c1cccnc1 [Compound 27, N-[(4,4'-Bipiperidin-1-yl-)carbonyl]-R-(-)-nipecotyl-[(S)-3-amino-3-(3-pyridyl)] propionic acid] | 6.35 | 100 | 100 | 60 | 120 | – |
| O=C(Nc1ccc2ccccc2c1)N[C@@H](CNC(=O)[C@@H]1CCCN(C(=O)CCC2CCNCC2)C1)C(=O)O [Compound 28, N-3-(4-Piperidinepropionyl)-R-(-)nipecotyl-[(S)-2-(2-naphthylamino)carbonylamino-3-amino]propionic acid] | 6.77 | 100 | 100 | – | 120 | – |
| O=C(NCCc1ccccc1)N[C@@H](CNC(=O)[C@@H]1CCCN(C(=O)CCC2CCNCC2)C1)C(=O)O [Compound 30, N-3-(4-Piperidinepropionyl)-R-(-)nipecotyl-[(S)-2-(2-phenethylamino)carbonylamino-3-amino]propionic acid] | 6.72 | 100 | 100 | 105 | 180 | – |
| Cc1ccc([C@H](CC(=O)O)NC(=O)[C@@H]2CCCN(C(=O)CCC3CCNCC3)C2)cn1 [Compound 31, N-3-(4-Piperidinepropionyl)-R-(-)nipecotyl-[(S)-3-amino-3-(6-methyl-3-pyridyl)]propionic acid] | 7.35 | 100 | 100 | – | – | Duration of >50% inhibition of collagen-induced ex vivo platelet aggregation ([4]; intravenous dosing 0.3 mpk, 0.3 mg/kg): 120 min and 60 min; Duration of >50% inhibition of collagen-induced ex vivo platelet aggregation ([4]; oral dosing 3 mpk, 3 mg/kg): >180 min and 180 min |
| CN(CC(=O)c1ccc(OCC(=O)O)c(OCC(=O)O)c1)C(=O)c1ccc(C(=N)N)cc1 [Ro-438857] | – | – | – | – | – | pIC50 [5]: 7.03 |

The remaining compounds from weak to strong by pIC50 [2], led by results:

| pIC50 [2] | inhibition at 50 µM [3] [%] | Compound | inhibition at 50 µM [2] [%] | Duration of >50% inhibition of collagen-induced ex vivo platelet aggregation ([4]; intravenous dosing 0.3 mpk) [min] | Duration of >50% inhibition of collagen-induced ex vivo platelet aggregation ([4]; oral dosing 3 mpk) [min] | further results |
| --- | --- | --- | --- | --- | --- | --- |
| 7.55 | 100 | O=C(O)CC(NC(=O)C1CCCN(C(=O)CCC2CCNCC2)C1)c1ccc2c(c1)OCO2 [Compound 16, N-3-(4-Piperidinepropionyl)-R-(-)-nipecotyl-[(S)-3-amino-3-(3,4-methylenedioxyphenyl)]propionic acid] | 94 | – | – | % of thrombus weight vs. vehicle control [1, 6]: 75%; % of thrombus weight vs. vehicle control [1, 7]: 37%; % of thrombus weight vs. vehicle control ([1]; 100 µg/kg/min cumulative dose by iv infusion): 12%; pIC50 [3]: 9.30; Duration of >50% inhibition of collagen- or ADP-induced ex vivo platelet aggregation ([4]; intravenous dosing 0.1 mpk): 60 min; Duration of >50% inhibition of collagen- or ADP-induced ex vivo platelet aggregation ([4]; oral dosing 1 mpk): 60 min; Duration of >50% inhibition of collagen- or ADP-induced ex vivo platelet aggregation ([4]; oral dosing 3 mpk): >180 min |
| 7.57 | 100 | O=C(N[C@@H](CNC(=O)[C@@H]1CCCN(C(=O)CCC2CCNCC2)C1)C(=O)O)OCc1ccccc1 [Compound 23, N-3-(4-Piperidinepropionyl)-R-(-)nipecotyl-[(S)-2-benzyloxycarbonylamino-3-amino]propionic acid] | 97 | – | 150 | Duration of >50% inhibition of collagen-induced ex vivo platelet aggregation ([4]; intravenous dosing 0.1 mpk): 60 min; Duration of >50% inhibition of collagen-induced ex vivo platelet aggregation ([4]; oral dosing 1 mpk): 180 min |
| 7.72 | 100 | O=C(O)C[C@H](NC(=O)[C@@H]1CCCN(C(=O)CCC2CCNCC2)C1)c1cnc2ccccc2c1 [Compound 18, N-3-(4-Piperidinepropionyl)-R-(-)-nipecotyl-[(S)-3-amino-3-(3-quinolinyl)]propionic acid] | 100 | – | – | % of thrombus weight vs. vehicle control ([1]; 3 µg/kg/min cumulative dose by iv infusion): 82%; % of thrombus weight vs. vehicle control [1, 6]: 41%; % of thrombus weight vs. vehicle control [1, 7]: 12%; Duration of >50% inhibition of collagen- or ADP-induced ex vivo platelet aggregation ([4]; intravenous dosing 0.1 mpk): 30 min; Duration of >50% inhibition of collagen- or ADP-induced ex vivo platelet aggregation ([4]; oral dosing 1 mpk): 150 min |
| 7.74 | 100 | O=C(N[C@@H](CNC(=O)[C@@H]1CCCN(C(=O)CCC2CCNCC2)C1)C(=O)O)OCc1cccc(Cl)c1 [Compound 24, N-3-(4-Piperidinepropionyl)-R-(-)nipecotyl-[(S)-2-(3-chlorobenzyloxy)carbonylamino-3-amino]propionic acid] | 100 | 90 | 120 | pIC50 [3]: 9.40 |
| 7.80 | 100 | COc1cc(NC(=O)N[C@@H](CNC(=O)[C@@H]2CCCN(C(=O)CCC3CCNCC3)C2)C(=O)O)cc(OC)c1 [Compound 26, N-3-(4-Piperidinepropionyl)-R-(-)nipecotyl-[(S)-2-(3,5-dimethoxyanllino)carbonylamino-3-amino]propionic acid] | 97 | – | 60 | – |
| 8.15 | 100 | O=C(NC[C@H](NS(=O)(=O)Cc1ccccc1)C(=O)O)[C@@H]1CCCN(C(=O)CCC2CCNCC2)C1 [Compound 25, N-3-(4-Piperidinepropionyl)-R-(-)nipecotyl-[(S)-2-benzylsulfonylamino-3-amino]propionic acid] | 97 | 30 | 60 | – |
